Broadly, the IC50 is the concentration needed to halve the response being measured. A higher IC50 goes with lower potency.

Test [1] relates to T47D (PI3Kα-H1047R) cell line. Put plainly: HTRF phospho-AKT(S473) cell assay in T47D cells. Type of test: cell-based, human. The protocol:
(§1) Compounds in the present disclosure were tested in a cell based HTRF phospho-AKT(S473) (CisBio/Revvity) assay in human breast cancer cell lines as a measurement of PIK3CA activity through measuring AKT, a downstream effector. The activity of mutant PI3Kα-H1047R and PI3Kα-Wild Type was measured in the T47D (PI3Kα-H1047R) and SKBR3 (PI3Kα-Wild Type) cell lines, respectively. T47D cells were plated at 20,000 cells per well in 50 μL in RPMI medium supplemented with 10% FBS and 0.2 units/mL insulin, in 384 well plates. SKBR3 cells were plated at 25,000 cells per well in 50 μL in McCoy's 5A medium supplemented with 10% FBS, in 384 well plates. Cells were plated using a Combi Multidrop reagent dispenser (ThermoFisher), and placed in 5% CO2, 37° C. incubator overnight to adhere.
(§2) The next day, cells were treated with either compounds or vehicle (DMSO) in a 12-fold dose response curve of 1:3 dilutions, with 5 μM and 10 μM as the top concentrations for the T47D and SKBR3 cell lines, respectively. Compound treatment was facilitated via the D300e digital dispenser (Tecan), with a maximum DMSO concentration of 0.5%. Following compound addition, cell plates were incubated for 2 hours in 5% CO2, 37° C. incubator. The SKBR3 cells were stimulated and treated with 70 ng/ml PDGF-BB ligand (ThermoFisher) for the remaining 15 minutes of the incubation. Following compound incubation, compound and media was aspirated from the cells and 25 μL of supplemented lysis buffer was added per well, and incubated for 45 minutes at room temperature, shaking at 600 rpm. Next, 16 μL of cell lysate was added to a 384 well low volume ProxyPlate (Perkin Elmer/Revvity) mixed with 4 μL of HTRF antibodies (1:1 Eu Cryptate+d2 Cryptate). HTRF supplemented lysis buffer and antibody reagents were used from the phosphor-AKT(S473) HTRF assay kit (CisBio/Revvity), following manufacturers protocol recommendations. Plates were sealed and incubated at 4° C. overnight.
(§3) The following day, plates were centrifuged for 1 minute at 1000 rpm, and read on a PHERAstar plate reader. IC50 values were calculated using Spotfire software.
(In general: In TR-FRET formats the signal depends on donor and acceptor labels being close together.)

In test [2] the test system is SKBR3 (PI3Kα-Wild Type) cell line. In words: HTRF phospho-AKT(S473) cell assay in SKBR3 cells. Type of test: cell-based, human. The protocol:
as §1, §2, §3

Where [3] appears, read: Homo sapiens; HTRF phospho-AKT(S473), T47D (PI3Kα-H1047R) cells, 2 hours compound incubation.
[4] abbreviates: Homo sapiens, SK-BR-3; HTRF phospho-AKT(S473), SKBR3 (PI3Kα-Wild Type) cells, 2 hours compound incubation, PDGF-BB stimulated.
The mark [5] stands for this setting: Homo sapiens; T47D (PI3Kα-H1047R) cells, HTRF phospho-AKT(S473), 2 hours compound incubation.
The mark [6] stands for this setting: Homo sapiens, SK-BR-3; SKBR3 (PI3Kα-Wild Type) cells, HTRF phospho-AKT(S473), 2 hours compound incubation, PDGF-BB stimulated.

Each structure is given as a SMILES string. Some results are limits rather than exact numbers.

In the case of `Cc1cc([C@@H](C)Nc2ccc(Cl)nc2C(=O)NS(C)(=O)=O)c2nc(-c3ccc4c(c3)C(=O)N(C)C4)n(C)c(=O)c2c1` [Compound 776, (R)-6-chloro-3-((1-(3,6-dimethyl-2-(2-methyl-3-oxoisoindolin-5-yl)-4-oxo-3,4-dihydroquinazolin-8-yl)ethyl)amino)-N-(methylsulfonyl) picolinamide], the IC50 in test [1] (setting [3]) lay within 250 to 500 nM; in test [2] (setting [4]), 1000 to 5000 nM.

On to `Cc1cc([C@@H](C)Nc2ccc(Cl)nc2C(=O)NS(C)(=O)=O)c2nc(N3CCC(n4ncc5ccccc54)CC3)n(C)c(=O)c2c1` [Compound 685, (R)-3-((1-(2-(4-(1H-indazol-1-yl)piperidin-1-yl)-3,6-dimethyl-4-oxo-3,4-dihydroquinazolin-8-yl)ethyl)amino)-6-chloro-N-(methylsulfonyl) picolinamide], for which the figures for the IC50 in test [1] (setting [3]) and in test [2] (setting [4]) were 250 to 500 nM and not below 5000 nM, respectively.

On to `Cc1cc([C@@H](C)Nc2ccc(Cl)nc2C(=O)NS(C)(=O)=O)c2nc(N3C[C@@H]4[C@H](C3)[C@H]4c3nnn(C)c3C)n(C)c(=O)c2c1` [Compound 498, 6-chloro-3-(((R)-1-(2-((1R,5S,6R)-6-(1,5-dimethyl-1H-1,2,3-triazol-4-yl)-3-azabicyclo[3.1.0]hexan-3-yl)-3,6-dimethyl-4-oxo-3,4-dihydroquinazolin-8-yl)ethyl)amino)-N-(methylsulfonyl) picolinamide], for which the IC50 in test [1] (setting [3]) was less than 250 nM; in test [2] (setting [4]), 1000 to 5000 nM.

For the molecule `Cc1cc([C@@H](C)Nc2ccc(Cl)nc2C(=O)NS(C)(=O)=O)c2nc(N3CCC(c4cnn(C(C)C)n4)CC3)n(C)c(=O)c2c1` [Compound 744, (R)-6-chloro-3-((1-(2-(4-(2-isopropyl-2H-1,2,3-triazol-4-yl)piperidin-1-yl)-3,6-dimethyl-4-oxo-3,4-dihydroquinazolin-8-yl)ethyl)amino)-N-(methylsulfonyl) picolinamide], the IC50 is 250 to 500 nM in test [1] (setting [3]) and not below 5000 nM in test [2] (setting [4]).

`Cc1cc([C@@H](C)Nc2ccc(Cl)nc2C(=O)NS(C)(=O)=O)c2nc(N3CCC[C@H](c4cn[nH]c4)C3)n(C)c(=O)c2c1` (mixture of isomers) [Compound 168, 3-(((R)-1-(2-((RS)-3-(1H-pyrazol-4-yl)piperidin-1-yl)-3,6-dimethyl-4-oxo-3,4-dihydroquinazolin-8-yl)ethyl)amino)-6-chloro-N-(methylsulfonyl) picolinamide]: the figures for the IC50 in test [1] (setting [5]) and in test [2] (setting [6]) were less than 250 nM and 1000 to 5000 nM, respectively.

For the molecule `Cc1cc([C@@H](C)Nc2ccc(Cl)nc2C(=O)NS(C)(=O)=O)c2nc(N3C[C@@H]4[C@H](C3)[C@H]4c3cnc(C(F)F)nc3)n(C)c(=O)c2c1` [Compound 522, 6-chloro-3-(((R)-1-(2-((1R,5S,6S)-6-(2-(difluoromethyl)pyrimidin-5-yl)-3-azabicyclo[3.1.0]hexan-3-yl)-3,6-dimethyl-4-oxo-3,4-dihydroquinazolin-8-yl)ethyl)amino)-N-(methylsulfonyl) picolinamide], the IC50 is less than 250 nM in test [1] (setting [3]) and 1000 to 5000 nM in test [2] (setting [4]).

On to `Cc1cc([C@@H](C)Nc2ccc(Cl)nc2C(=O)NS(C)(=O)=O)c2nc([C@H]3[C@@H]4CN(c5nccc(C)n5)C[C@@H]43)n(C)c(=O)c2c1` [Compound 826, 6-chloro-3-(((R)-1-(3,6-dimethyl-2-((1R,5S,6r)-3-(4-methylpyrimidin-2-yl)-3-azabicyclo[3.1.0]hexan-6-yl)-4-oxo-3,4-dihydroquinazolin-8-yl)ethyl)amino)-N-(methylsulfonyl) picolinamide], for which the values for the IC50 in test [1] (setting [3]) and in test [2] (setting [4]) were 250 to 500 nM and not below 5000 nM, respectively.

Turning to `Cc1cnc(O[C@@H]2CCN(c3nc4c([C@@H](C)Nc5ccc(Cl)nc5C(=O)NS(C)(=O)=O)cc(C)cc4c(=O)n3C)C2)nc1` [Compound 613, 6-chloro-3-(((R)-1-(3,6-dimethyl-2-((R)-3-((5-methylpyrimidin-2-yl)oxy)pyrrolidin-1-yl)-4-oxo-3,4-dihydroquinazolin-8-yl)ethyl)amino)-N-(methylsulfonyl) picolinamide], the IC50 in test [1] (setting [3]) is less than 250 nM; in test [2] (setting [4]), 1000 to 5000 nM.

On to `Cc1cc([C@@H](C)Nc2ccc(Cl)nc2C(=O)NS(C)(=O)=O)c2nc(-c3ccccc3)n(C)c(=O)c2c1` [Compound 813, (R)-6-chloro-3-((1-(3,6-dimethyl-4-oxo-2-phenyl-3,4-dihydroquinazolin-8-yl)ethyl)amino)-N-(methylsulfonyl) picolinamide], for which the IC50 in test [1] (setting [3]) is 250 to 500 nM; in test [2] (setting [4]) it was not below 5000 nM.

For `Cc1cc([C@@H](C)Nc2ccc(Cl)nc2C(=O)NS(C)(=O)=O)c2nc(N3CCC(c4cnccn4)CC3)n(C)c(=O)c2c1` [Compound 398, (R)-6-chloro-3-((1-(3,6-dimethyl-4-oxo-2-(4-(pyrazin-2-yl)piperidin-1-yl)-3,4-dihydroquinazolin-8-yl)ethyl)amino)-N-(methylsulfonyl) picolinamide], the IC50 in test [1] (setting [5]) is 250 to 500 nM; in test [2] (setting [6]) it was not below 5000 nM.

For the molecule `Cc1cc([C@@H](C)Nc2ccc(Cl)nc2C(=O)NS(C)(=O)=O)c2nc(N3C[C@@H]4[C@H](C3)[C@H]4c3cc[nH]n3)n(C)c(=O)c2c1` [Compound 699, 3-(((R)-1-(2-((1R,5S,6R)-6-(1H-pyrazol-3-yl)-3-azabicyclo[3.1.0]hexan-3-yl)-3,6-dimethyl-4-oxo-3,4-dihydroquinazolin-8-yl)ethyl)amino)-6-chloro-N-(methylsulfonyl) picolinamide], the IC50 in test [1] (setting [3]) lay in the range of 250 to 500 nM; in test [2] (setting [4]), 1000 to 5000 nM.

Regarding `Cc1cc([C@@H](C)Nc2ccc(Cl)nc2C(=O)NS(C)(=O)=O)c2nc(N3CCO[C@H](c4ccccc4)C3)n(C)c(=O)c2c1` [Compound 689, 6-chloro-3-(((R)-1-(3,6-dimethyl-4-oxo-2-((R)-2-phenylmorpholino)-3,4-dihydroquinazolin-8-yl)ethyl)amino)-N-(methylsulfonyl) picolinamide], the IC50 in test [1] (setting [3]) was less than 250 nM; in test [2] (setting [4]) it was 1000 to 5000 nM.

Turning to `Cc1cc([C@@H](C)Nc2ccc(Cl)nc2C(=O)NS(C)(=O)=O)c2nc(N3CCC[C@H](C#N)C3)n(C)c(=O)c2c1` [Compound 209, 6-chloro-3-(((R)-1-(2-((S)-3-cyanopiperidin-1-yl)-3,6-dimethyl-4-oxo-3,4-dihydroquinazolin-8-yl)ethyl)amino)-N-(methylsulfonyl) picolinamide], the values for the IC50 in test [1] (setting [5]) and in test [2] (setting [6]) were less than 250 nM and 1000 to 5000 nM, respectively.

Regarding `Cc1cc([C@@H](C)Nc2ccc(Cl)nc2C(=O)NS(C)(=O)=O)c2nc(N3CCC4(CCc5c[nH]nc54)CC3)n(C)c(=O)c2c1` [Compound 682, (R)-6-chloro-3-((1-(2-(4,5-dihydro-2H-spiro [cyclopenta[c]pyrazole-6,4′-piperidin]-1′-yl)-3,6-dimethyl-4-oxo-3,4-dihydroquinazolin-8-yl)ethyl)amino)-N-(methylsulfonyl) picolinamide], the IC50 in test [1] (setting [3]) was 250 to 500 nM; in test [2] (setting [4]), not below 5000 nM.

With `Cc1cc([C@@H](C)Nc2ccc(Cl)nc2C(=O)NS(=O)(=O)c2ccc(N(C)C)nc2)c2nc(N3Cc4ccc(F)cc4C3)n(C)c(=O)c2c1` [Compound 757, (R)-6-chloro-N-((6-(dimethylamino)pyridin-3-yl)sulfonyl)-3-((1-(2-(5-fluoroisoindolin-2-yl)-3,6-dimethyl-4-oxo-3,4-dihydroquinazolin-8-yl)ethyl)amino) picolinamide], the IC50 is 250 to 500 nM in test [1] (setting [3]) and not below 5000 nM in test [2] (setting [4]).

As for `Cc1cc([C@@H](C)Nc2ccc(Cl)nc2C(=O)NS(C)(=O)=O)c2nc(N3CCC(c4ccnn4C(F)F)CC3)n(C)c(=O)c2c1` [Compound 414, (R)-6-chloro-3-((1-(2-(4-(1-(difluoromethyl)-1H-pyrazol-5-yl)piperidin-1-yl)-3,6-dimethyl-4-oxo-3,4-dihydroquinazolin-8-yl)ethyl)amino)-N-(methylsulfonyl) picolinamide], the IC50 in test [1] (setting [5]) was less than 250 nM; in test [2] (setting [6]), 1000 to 5000 nM.

On to `Cc1cc([C@@H](C)Nc2ccc(Cl)nc2C(=O)NS(C)(=O)=O)c2nc(N3C[C@H]4C[C@@H]3C[C@@H]4c3nn(C)cc3F)n(C)c(=O)c2c1` (relative stereo) [Compound 443, 6-chloro-3-(((R)-1-(2-((1R*,4S*,5S*)-5-(4-fluoro-1-methyl-1H-pyrazol-3-yl)-2-azabicyclo[2.2.1]heptan-2-yl)-3,6-dimethyl-4-oxo-3,4-dihydroquinazolin-8-yl)ethyl)amino)-N-(methylsulfonyl) picolinamide], for which the IC50 is 250 to 500 nM in test [1] (setting [3]) and 1000 to 5000 nM in test [2] (setting [4]).

Values taken from US12281122B1, “PI3K inhibitors” (Cogent Biosciences, Inc., priority 2023, dated 2025).
